In patent US8476051B2, “Thermostable alcohol dehydrogenase derived from Thermococcus guaymasensis” (priority 2008, dated 2013):
“Also recorded” adds a separate entry of the source. Where two headings read alike, the source gives them in different places. Marks after values point to notes of the source that are not given here.

Experiments:
[1] = biological target: T1, T. guaymasensis ADH (Thermococcus guaymasensis, UniProt F8S123); assay: Substrate specificity, alcohol oxidation (standard enzyme assay); assay type: biochemical; conditions: for Relative activity (alcohol oxidation): alcohols 50 mM, 100% = 2-butanol, 0.4 mM NADP^+, pH 10.5, 80° C.
Procedure: (§1) The purified enzyme (0.25 μg) initiated the enzyme assay. […] The protein concentrations of all samples were determined using the Bradford method and bovine serum albumin served as the standard protein (Bradford 1976).
(§2) The effect of pH on the enzyme activities was determined over a range of 5.5-11.4. The buffers (100 mM) used were phosphate (pH 5.5-8.0), EPPS (8.0-9.0), glycylglycine (9.0-9.7), and CAPS (9.7-11.4). The effect of the temperature on the enzyme activity was examined at temperatures from 30 to 95° C. Enzyme thermostability was determined by incubating the enzyme in sealed serum bottles at 80° C. and 95° C., respectively. Residual activity was assayed at various time intervals under the standard assay conditions. Substrate specificity was determined using primary and secondary alcohols (50 mM), diols and polyols (50 mM), or aldehydes and ketones (6 mM) under standard assay conditions.

[2] = biological target: T1, T. guaymasensis ADH; assay: Substrate specificity, aldehyde/ketone reduction (standard enzyme assay); assay type: biochemical; conditions: aldehydes or ketones 6 mM; 100% = 2-butanone; 0.2 mM NADPH, pH 7.5, 80° C.
Procedure: as §1, §2

[3] = biological target: T1, T. guaymasensis ADH; assay: Stereoselective conversion between acetoin and 2,3-butanediol (chiral GC); assay type: biochemical
Procedure: All the reactions were carried out at 30° C. for 24 hours unless specified. After that, the reaction mixture (1 ml) was extracted with 1 ml ethyl acetate or dichloride methane with shaking on a Gyrotory water bath shaker model G76 (New Brunswick Scientific Co., INC., NJ, USA) at 350 rpm for 30 min (room temperature). The stereoselectivity of the purified enzyme was determined using the Shimadzu GC-14A gas chromatography equipped with a CP-Chirasil-Dex CB column (0.25 mm ID×25 m length, Varian Inc., Palo Alto, Calif., USA). The following GC operating conditions included the FID detector (250° C.) at a sensitivity range of 10 and helium as the carrier gas at a linear velocity of 40 cm s^−1. […] The reaction mixture after extraction (0.5 μl) was directly applied onto the injector (200° C.) for each assay. The peak areas were quantitated using specific external standards.

[4] = tested on: T. guaymasensis ADH; assay: Effect of metal ions on enzyme activity (2-butanone reduction); assay type: biochemical, Thermococcus guaymasensis; conditions: up to 100 μM in the assay mixture
Procedure: as §2
Metal ions were added in the enzyme assay mixture at a final concentration of 100 μM.

[5] = tested on: C[C@@H](O)[C@@H](C)O; assay: purified protein, by the assay type; conditions: other: co-substrate NADP^+ (0.4 mM); 80.0 °C
[6] = tested on: C[C@H](O)[C@@H](C)O; assay: purified protein, by the assay type; conditions: other: co-substrate NADP^+ (0.4 mM); 80.0 °C
[7] = substrate: CC(=O)C(C)=O; assay: purified protein, by the assay type; conditions: other: co-substrate NADPH (0.2 mM); 80.0 °C
[8] = substrate: CCC(C)=O; assay: purified protein, by the assay type; conditions: other: co-substrate NADPH (0.2 mM); 80.0 °C
[9] = substrate: CC(=O)C(C)O; assay: purified protein, by the assay type; assay type: biochemical, Thermococcus guaymasensis; conditions: other: co-substrate NADPH (0.2 mM); 80.0 °C
Procedure: Apparent values of Km and Vmax were calculated using the curve fittings of SigmaPlot (Systat Software Inc., San Jose, Calif., USA).

[10] = ADH specific activity (spectrophotometric enzyme assay); assay type: biochemical
Procedure: as §1
The reaction was initiated by adding enzymes.

[11] = Oxygen sensitivity (residual activity after exposure to air); assay type: physicochemical; conditions: exposed to air for a week
Procedure: The effect of oxygen on enzyme activity was investigated by exposing the enzyme samples in the air at room temperature and determining the residual activity after oxygen exposure. The exposure was performed in the presence or absence of DDT and SDT. The residual activities of each sample at different time intervals were tested parallelly under the standard assay conditions.

[12] = oxidation, 50 mM substrate, 500 mM acetone, 1 mM NADP^+, 30° C., 24 hours

For 1-Propanol, the “Relative activity (alcohol oxidation)” value [1] was 15.1 ± 0.3%.

For `CC(=O)C(C)O` (racemic) [Acetoin], the “Oxidation of the substrate by the enzyme (in words)” value (“Oxidation of the substrate” below) [1] was “could not oxidize; also recorded: cannot be oxidized”, the “Relative activity (aldehyde/ketone reduction)” value [2] was 93 ± 3.2% and the “ee of (2R,3R)-2,3-butanediol and meso-2,3-butanediol over (2S,3S)-(+)-2,3-butanediol” value ([3]; reduction, 50 mM substrate, 500 mM isopropanol, 1 mM NADPH, 30° C., 24 hours) was greater than 99%.

With `CCC(O)CO` (stereo not shown) [1,2-Butanediol] the “Relative activity (alcohol oxidation)” value [1] was 25.6 ± 2.3%.

For `CCCC(O)CO` (stereo not shown) [1,2-Pentanediol], the “Relative activity (alcohol oxidation)” value [1] was 4.7 ± 0.3%.

With `CC(O)CCO` (stereo not shown) [1,3-Butanediol] the “Relative activity (alcohol oxidation)” value [1] was 35.4 ± 1.1%.

For `CCCCO` [1-Butanol], the “Relative activity (alcohol oxidation)” value [1] was 5.1 ± 0.2%.

In the case of `CCCCCO` [1-Pentanol], the “Relative activity (alcohol oxidation)” value [1] is reported as 0.8 ± 0.2%.

For `CC(O)C(C)O` (stereo not shown) [2,3-Butanediol], the “Relative activity (alcohol oxidation)” value [1] was 78.7 ± 3.4%.

For `CC(O)CC(C)O` (stereo not shown) [2,4-Pentanediol], the “Relative activity (alcohol oxidation)” value [1] was 9.2 ± 0.1%.

With `CCC(C)O` (stereo not shown) [2-Butanol] the “Activity meant by relative activity of 100% in alcohol oxidation” value ([1]; 50 mM substrate) was “^aThe relative activity of 100% in alcohol oxidation means 1144 ± 24 U mg^−1” and the “Relative activity (alcohol oxidation)” value [1] was 100 ± 2.2^a %.

In the case of `CCC(C)=O` [2-Butanone], the “Relative activity (aldehyde/ketone reduction)” value [2] is reported as 100 ± 3.4^b % and the “Stereoselectivity of the reduction (in words)” value ([3]; reduction to chiral 2-butanols) is reported as “no stereoselectivity”.

With `CCCC(C)O` (stereo not shown) [2-Pentanol] the “Relative activity (alcohol oxidation)” value [1] was 66.3%.

For `CCCC(C)=O` [2-Pentanone], the “Relative activity (aldehyde/ketone reduction)” value [2] was 86.2 ± 3.1%.

With `CC(C)O` [2-Propanol] the “Relative activity (alcohol oxidation)” value [1] was 88 ± 1.1%.

In the case of `C[C@@H](O)[C@@H](C)O` [(2R,3R)-(−)-2,3-butanediol], the “Enantiomeric excess (ee) of product (3R)-acetoin” value [3, 12] is reported as 94%.

With `CC=O` [Acetaldehyde] the “Relative activity (aldehyde/ketone reduction)” value [2] was 36 ± 4.2%.

In the case of `CC(C)=O` [Acetone], the “Relative activity (aldehyde/ketone reduction)” value [2] is reported as 149.4 ± 2.8%.

With `CCCC=O` [Butyraldehyde] the “Relative activity (aldehyde/ketone reduction)” value [2] was 112.4 ± 11.9%.

In the case of `CC(=O)C(C)=O` [Diacetyl], the “Relative activity (aldehyde/ketone reduction)” value [2] is reported as 134.8 ± 5.9%.

In the case of `CCO` [Ethanol], the “Relative activity (alcohol oxidation)” value [1] is reported as 5.7 ± 0.3%.

For `OCC(O)CO` [Glycerol], the “Relative activity (alcohol oxidation)” value [1] was 0.2 ± 0.1%.

With `N[C@@H](CO)C(=O)O` [L-serine] the “Oxidation of the substrate” value [1] was “no activity; also recorded: did not catalyze”.

In the case of `C[C@@H](O)[C@H](N)C(=O)O` [L-threonine], the “Oxidation of the substrate” value [1] is reported as “no activity; also recorded: did not catalyze” and the “Oxidation of the substrate” value ([1]; listed as threonine) is reported as “did not catalyze”.

In the case of `CO` [Methanol], the “Oxidation of the substrate” value [1] is reported as “did not oxidize” and the “Relative activity (alcohol oxidation)” value [1] is reported as 0%.

With `[Zn+2]` [Zn^2+] the “Effect on enzyme activity (butanol formation)” value [4] was “inhibited” and the “Effect on enzyme activity (butanol formation)” value ([4]; listed as zinc) was “blocked”.

For `C[C@H](O)[C@@H](C)O` [meso-2,3-butanediol], the “Enantiomeric excess (ee) of product (3S)-acetoin” value [3, 12] was 88%.

For “T. guaymasensis ADH (Thermococcus guaymasensis)”, the Km [5] was 15200 µM, the Vmax [5] was 1110 µmol/min/mg and the kcat [5] was 740 s⁻¹. It also gave a kcat/Km [5] of 49000 M⁻¹ s⁻¹, a Km [6] of 19300 µM and a Vmax [6] of 1430 µmol/min/mg. It also gave a kcat [6] of 952 s⁻¹ and a kcat/Km [6] of 49000 M⁻¹ s⁻¹.

B1: T. guaymasensis ADH (Thermococcus guaymasensis) (protein)
chain: SKMRGFAMVDFGKAEWIEKERPKPGPYDAIVKPIAVAPCTSDIHTVFEAAFPREMCEFPRILGHEAVGEVVEVGSHVKDFKPGDRVVVPAITPDWRTLDVQRGYHQHSGGMLAGWKFSNPLKEGGKDGVFAEYFHVNDADMNLAHLPDEIKPEVAVMATDMMTTGFHGAELADIPLGGTVAVIGIGPVGLMAVAGARLLGAGRIIAVGSRPVCVEAAKYYGATDIVNRREHPDIAGRILELTGGEGVDSVIIAGGNVDVMKTAVKIVKPGGTVANINYFGSGDYLPIPRIEWGQGMAHKTIKGGLCPGGRLRMERLLDLIKYGRVDPSRLITHKFKGFDKIPEALYLMKDKPKDLIKPVVIIEE
Molecule B1 has a Km [7] of 210 µM, a Vmax [7] of 303 µmol/min/mg and a kcat [7] of 202 s⁻¹. The kcat/Km [7] was 962000 M⁻¹ s⁻¹, the Km [8] was 310 µM and the Vmax [8] was 285 U mg^−1. For the same molecule, the kcat [8] was 190 s⁻¹, the kcat/Km [8] was 613,000 s^−1M^−1 and the Km [9] was 320 µM. The Vmax [9] was 213 µmol/min/mg, the kcat [9] was 142 s⁻¹ and the kcat/Km [9] was 444000 M⁻¹ s⁻¹.

B2: TgADH(C56S): TgADH mutant, serine for cysteine at position 56 (SEQ ID NO:10), expressed in E. coli Rosetta-2 (protein)
chain: MHHHHHHSSGLVPRGSGMKETAAAKFERQHMDSPDLGTDDDDKAMADIGSEFMSKMRGFAMVDFGKAEWIEKERPKPGPYDAIVKPIAVAPCTSDIHTVFEAAFPREMSEFPRILGHEAVGEVVEVGSHVKDFKPGDRVVVPAITPDWRTLDVQRGYHQHSGGMLAGWKFSNPLKEGGKDGVFAEYFHVNDADMNLAHLPDEIKPEVAVMATDMMTTGFHGAELADIPLGGTVAVIGIGPVGLMAVAGARLLGAGRIIAVGSRPVCVEAAKYYGATDIVNRREHPDIAGRILELTGGEGVDSVIIAGGNVDVMKTAVKIVKPGGTVANINYFGSGDYLPIPRIEWGQGMAHKTIKGGLCPGGRLRMERLLDLIKYGRVDPSRLITHKFKGFDKIPEALYLMKDKPKDLIKPVVIIEE
modifications: C56S with vector coding region
For B2, the “Enzyme activity compared with wild type TgADH (in words)” value [10] was “virtually no difference” and the “Activity after exposure to air (in words)” value [11] was “lost activity”.
